Tests used:
A375 = test: Growth inhibition of tumor cells, A375; format: cell-based; conditions: Homo sapiens, A-375; read-out: IC50 against tumor cells, A375
Description: Lung cancer cells A549 were separated into a 96-well plate and respectively added with 10 mM TZ47 stock solution to final concentrations of 0 μM, 0.1 μM, 0.5 μM, 1 μM, 2 μM, 4 μM and 8 μM in respective wells. Then the 96-well plate was incubated at 37° C. for 48 h and the growth of the cells was analyzed by a CCK-8 method. […] It can be seen from Table 1 that TZ47 also plays a desirable role in inhibiting the growth of other cancer cells including colorectal cancer, leukemia, liver cancer, melanoma, breast cancer and ovarian cancer.

gene E2F2 in A549 cells = test: E2F2 expression in A549 cells (real-time quantitative PCR, Western blot); format: cell-based
A549 cells = test: Autophagy of A549 cells (LC3 western blot); format: cell-based; conditions: increasing concentration of TZ47
AURKB = AURKB (Homo sapiens, UniProt Q96GD4); test: Microscale thermophoresis (MST) binding to AURKB protein; set-up: made in house; host or cells: E. coli BL21; conditions: prokaryotically expressed GST-AURKB, read-out: dissociation constant of binding to AURKB protein
Sequence of AURKB (Q96GD4 1-345 isoform Q96GD4-5): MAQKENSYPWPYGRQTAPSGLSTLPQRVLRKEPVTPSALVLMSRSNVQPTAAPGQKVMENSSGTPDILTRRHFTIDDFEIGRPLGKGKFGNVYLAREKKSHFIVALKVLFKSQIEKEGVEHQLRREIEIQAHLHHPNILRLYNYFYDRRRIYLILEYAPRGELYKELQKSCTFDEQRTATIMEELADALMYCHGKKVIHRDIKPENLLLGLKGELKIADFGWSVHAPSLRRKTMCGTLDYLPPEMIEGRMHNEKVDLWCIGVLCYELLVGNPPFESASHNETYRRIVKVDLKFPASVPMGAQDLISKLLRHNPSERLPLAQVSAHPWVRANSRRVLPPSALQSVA
Description: Thus, it is speculated that the treatment affected the activity of a kinase which was able to phosphorylate the H3S10. The following procedures were conducted to verify whether TZ47 inhibited the activity of AURKB directly. First, prokaryotic expression of AURKB protein and purification were performed and then a microscale thermophoresis (MST) was used to detect the binding between TZ47 and AURKB protein by testing the change of microscale thermophoresis caused by the hydrated layer (generally derived from the change of the structure/conformation of biomolecules) based on the directional movement of particles in a microscopic temperature gradient. […] Flag-tagged AURKB protein was then enriched by M2-flag beads (anti-Flag antibody conjugated) from the lysed liquid of 293T cells and used in the in-vitro kinase activity analysis. It can be seen from FIGS. 6A-6B that the Flag-AURKB protein had kinase activity and can phosphorylate histone H3.
The cDNA of 293T cells of human was used as the template to amplify the AURKB CDS sequence in the presence of LATaq enzyme. […]
1 mL of the eluent was added to the EP tube containing GST beads, rotated at 4° C. for 30 min and centrifuged at 3,000 rpm for 3 min. […] An appropriate amount of the combined supernatant was subjected to SDS-PAGE for the determination of elution efficiency and protein purity and quantity. • b. […]

IC50 (A375): 1400 ± 110 nM
Kd (AURKB): 135 ± 2 nM
Compound: c1ccc2c(Cc3[nH]c4ccccc4c3Cc3c[nH]c4ccccc34)c[nH]c2c1 [TZ47]
E2F2 protein level (gene E2F2 in A549 cells; Western blot): reduced
expression level of gene E2F2 (mRNA) (gene E2F2 in A549 cells; real-time quantitative PCR): significantly reduced
degree of cell autophagy (A549 cells): increased significantly
